This is an account of results in patent US20060128014A1, “Compositions and methods for culturing stem cells” (priority 2002, published 2006).

Where no end group is shown, it is not given here.

The conditions of data set [1]: cited from earlier work.
For data set [2], the system named is adult derived neural stem cells. Description: Proliferation of adult derived neural stem cells by increased cAMP (unpublished results). The format is cell-based. Conditions: increased levels of cAMP.
In a further data set the test system is hippocampal CA1 region. Conditions: cited from earlier work; for delayed neuronal death in the hippocampal CA1 region: transient forebrain ischemia.
Another data set concerns human neural stem cells. Description: Neurosphere formation of human neural stem cells. It is filed as cell-based. As for the experimental part: Culture of human neural stem cells: Human neural stem cells were isolated and cultured under adherent conditions according to the protocol described in Palmer et al., 2001, Nature 411(6833):42-43, modified to exclude the additives PDGF and cystatinC and using B27 supplement instead of BIT. The cells were cultured for 10-16 passages in DMEM/F12 with B27-supplement and EGF (20 ng/ml) and FGF-2 (20 ng/ml). Cells were detached with Trypsin/EDTA, rinsed three times and then replated in suspension culture plastic wells in DMEM/F12 and B27-supplement for 24 h without growth factors. Thereafter factors (Vanadate, EGF or EGF+FGF2) were added for one day.

A further data set relates to adult neural stem cells. Description: Intracellular ATP assay (ViaLight kit) on cultured adult neural stem cells. Conditions: for maximal amplitudes of responses: vanadate and EGF each added alone, compared. The format is cell-based, mice. As for the experimental part: Neurosphere cultures: The anterior lateral wall of the lateral ventricle of 5-6 week old mice was enzymatically dissociated in 0.8 mg/ml hyaluronidase and 0.5 mg/ml trypsin in DMEM containing 4.5 mg/ml glucose and 80 units/ml DNase at 37° C. for 20 min. The cells were gently triturated and mixed with three volumes of Neurosphere medium (DMEM/F12, B27 supplement, 125 mM HEPES pH7.4) containing 20 ng/ml EGF (unless otherwise stated), 100 units/ml penicillin and 100 _g/ml streptomycin. After passing through a 70 _m strainer, the cells were pelleted at 160×g for 5 min. The supernatant was subsequently removed and the cells resuspended in Neurosphere medium supplemented as above, plated out in culture dishes and incubated at 37° C. Neurospheres were ready to be split approximately 7 days after plating.
To split the neurospheres, they were collected by centrifugation at 160×g for 5 min. The conditioned supernatant (conditioned medium) was removed and saved. The neurospheres were resuspended in 0.5 ml Trypsin/EDTA in HBSS (1×), incubated at 37° C. for 2 min and triturated gently to aid dissociation. Following a further 3 min incubation at 37° C. and trituration, 3 volumes of ice cold NSPH-media-EGF were added to stop further trypsin activity. The cells were pelleted at 220×g for 4 min, and resuspended in a 1:1 mixture of fresh Neurosphere medium and conditioned medium. EGF was supplemented to 20 ng/ml and the culture plated out and incubated at 37° C.
Where stated, a minimal Neurosphere medium was used containing BIT supplement in place of B27 supplement.
Neurosphere assays: NSC, cultured as described above, from passage 2 were seeded in DMEM/F12 supplemented with B27 into a 96-well plate as single cells (10000 cells/well), to which agents were added at the concentrations indicated.
After 3 days of treatment, intracelluar ATP was measured using the ViaLight kit (BioWhittaker) according to the manufacturer's instructions.

A further data set relates to neural stem cells. Description: Sphere formation in presence of vanadate and in combination with PACAP. It is filed as cell-based. Conditions: DMEM/F12 with B27, after 7 days. Here is the method: Cells were isolated as described (see section 5.5.1). Aliquots of 1 ml cell suspension per well equivalent to one brain per well were plated in DMEM/F12 supplemented with B27.
10 uM Vanadate or 10 uM Vanadate +300 nM PACAP was added to the cultures. Fresh substances were added every second day. After 7 days sphereformation was observed.

The conditions of data set [3]: experimental animals; cited from earlier work.

For `[Na+].[O]=[V](=[O])[O-]` [NaVO3], the “most common adverse effect” value in data set [1] (oral) is on record as “mild gastrointestinal intolerance”.
`COc1ccc(C2CNC(=O)C2)cc1OC1CCCC1` (centres unmarked) [rolipram]: in data set [2], the proliferation result is recorded as “trigger proliferation”.
For `[Na+].[Na+].[Na+].[O]=[V]([O-])([O-])[O-]` [sodium orthovanadate], the “delayed neuronal death in the hippocampal CA1 region” value with hippocampal CA1 region is reported as “rescued cells from delayed neuronal death”.
For `[O]=[V]([O-])([O-])[O-]` [vanadate], the neuroprotection result in the data set with hippocampal CA1 region (experimental animals) was “neuroprotective”. In addition, in data set [1] (humans), the tolerability in humans result is “tolerated”. Besides, the “effect in patients suffering from diabetes” value in data set [1] (patients suffering from diabetes) is given as “positive results”. The sphere formation result in the data set on human neural stem cells (10 uM, after 1 d, DMEM/F12 and B27-supplement, FIG. 8a) was “formed numerous spheres”; in the data set on neural stem cells (10 uM Vanadate + 300 nM PACAP, FIG. 6b) it was “Sphereforming capacity was noted”; in the data set with neural stem cells (10 uM Vanadate alone, FIG. 6a) it was “Sphereforming capacity was noted”. Further, in the data set with human neural stem cells (10 uM, after 1 d, FIG. 8a), the “adherence of the spheres” value was “virtually all spheres were free floating”. Further, the “proliferative effect (intracellular ATP levels)” value with adult neural stem cells (added alone, growth media supplemented with BIT or B27, 3 days of treatment, FIG. 1) is listed as “concentration dependent proliferative effect”. Further, the “ATP-levels with EGF and increasing concentrations of vanadate” value with adult neural stem cells (in addition to EGF (3 nM), FIG. 7) is given as “not significantly altered”. Further, the “proliferative effect in combination with EGF” value in the data set with adult neural stem cells (in the presence of EGF, supplement BIT or B27, FIGS. 2 and 3) is “additive”. The “proliferative effect in combination with PACAP” value with adult neural stem cells (in the presence of PACAP, supplement BIT or B27, FIGS. 4, 5) was “additive”. Besides, the “maximal amplitudes of responses” value in the data set on adult neural stem cells (FIGS. 2 and 3) is recorded as “equal in size”. In data set [3], the blood glucose levels entry was “reduces blood glucose levels”.
As to “EGF: epidermal growth factor, protein growth factor”, the “maximal amplitudes of responses” value in the data set with adult neural stem cells (FIGS. 2 and 3) is reported as “equal in size”.
As to FGF-2: protein growth factor, the “neurosphere formation with growth factors” value in the data set with human neural stem cells (growth factors added for one day, FIG. 8b and 8c) was “reduced neurosphere formation”.
Turning to IGF-1: insulinlike growth factor-1, the “delayed neuronal death in the hippocampal CA1 region” value in the data set with hippocampal CA1 region is “rescued cells from delayed neuronal death”.
For “PACAP: neuropeptide acting on cyclase activating GPCRs (HSDGIFTDSYSRYRKQMAVKKYLAAVLGKRYKQRVKNK; ends and bridges not checked; UniProt P18509 132-169, looked up)”, the proliferation entry in data set [2] was “trigger proliferation”.
